Measured values: patent US20220081481A1, “USE OF AGENTS CAPABLE OF INDUCING LC3-ASSOCIATED PHAGOCYTOSIS FOR TREATING SUSTAINED INFLAMMATION IN PATIENTS SUFFERING FROM CHRONIC LIVER DISEASE” (INSERM (INSTITUT NATIONAL DE LA SANTÉ ET DE LA RECHERCHE …, priority 2019, published 2022)
Ends that are not written are not given here.

System: CD14+ cells from patients and healthy donors PBMC
Assay: Flow cytometry of IL8+ production in CD14+ cells of PBMC
Assay type: cell-based, human
Conditions: for number of CD14+IL8+ monocytes: cirrhotic monocytes vs control-treated cells from healthy donors, 10 mM 3-MA, 10 μM DPI, 30 μM N8, 4 hrs, FIG. 1B; for inflammatory signature in blood monocytes: healthy donors and patients, prominent increase in cells from patients, 4 hrs at 37° C., FIG. 1B and 1C
Method: FIG. 1: Inhibition of LAP components enhances the inflammatory signature in blood monocytes from patients with cirrhosis. (A). Inverse correlation between circulating C-Reactive Protein (CRP) levels and the number of LC3+ pHrodo+ phagosomes containing E. Coli bioparticles in blood monocytes from patients with cirrhosis (n=14). *p=0.005, r=-0.7 for LC3+ pHrodo+ phagosomes number vs CRP. (B). PBMC were incubated for 4 hrs at 37° C. with either vehicle, 10 mM 3-MA, 10 μM DPI, 30 μM N8 or control mutant […] peptides Percentage of IL8+ production in CD14+ cells from patients (n=8) and healthy donors (n=6) PBMC. (C). RT-PCR analysis of inflammatory gene expression in blood monocytes from healthy donors (n=6-8) and cirrhotic patients (n=6-11). Results are expressed as fold over respective control. *p<0.05, **p<0.001 for healthy vs cirrhotic. Statistical analysis was performed using Spearman correlation test (A), Mann-Whitney (b, for comparison between healthy and cirrhosis) and Wilcoxon matched-pairs signed rank test (B, for treatment). Peripheral blood mononuclear cells (PBMC) and monocyte isolation. PBMC were prepared from the blood of cirrhotic patients and healthy donors, using Ficoll density gradient centrifugation (Ficoll PaqueTM-plus, GE Healthcare, 17-1440-02), as previously described^43. Cell treatment. Human monocytes, THP1-XBlueTM-CD14 (Invivogen, Catalog #[…] THP1-FcγRIIA+-CD14+(kindly provided by Novimmune) monocytes were used. When indicated cells were exposed to either 30 μM chloroquine diphosphate (Sigma, C6628), 10 mM 3-Methyladenine (3-MA, Sigma, M9281-100 mg), 10 mM Diphenyleneiodonium chloride (DPI, Sigma, D2926-10 mg), or 10 mg/ml IVIg (Privigen, 100 mg/ml) for 4 hrs at 37° C., as indicated. […] In some experiments, cells were exposed to the preformed complex (10 μg/ml of mouse anti-hFcγRII mAb (clone AT-10, Santa Cruz, sc-13527) F(ab')2 fragments+20 μg/ml goat anti-mouse anti-kappa F(ab')2 fragments (Southern Biotech, 1052-01) or to 100 μg/ml of anti-hFcγRIIA mAb F(ab')2 fragments (clone IV.3), purified as we previously described^26. Flow cytometry. For surface and intracellular staining, PBMC (1×10^6) were centrifuged at 4° C. at 500 g for 5 min and stained in the dark for 30 min at 4° C. in flow cytometry staining buffer (5% FCS-PBS) containing fluorochrome-conjugated antibodies (APC-CD14, clone HCD14, Biolegend, 325608), CD11b-PE-vio 770 (clone REA592, Miltenyi Biotec, 130-109-287), CD16 Brilliant violet 605 (clone3G8, 302040, Biolegend) and FITC-FcγRIIA (clone […] Technologies, 60012FI). […] Data acquisition was performed using a BD Biosciences LSR Fortessa cytometer and data were analysed using FlowJo analysis software (Tree Star).

| Compound | number of CD14+IL8+ monocytes | inflammatory signature in blood monocytes |
| --- | --- | --- |
| Cn1cnc(N)c2ncnc1-2 [3-MA, 3-Methyladenine] | significantly higher | enhanced |
| N8 peptide: Tat-conjugated peptide of eight N-terminal amino acids (3-10) of p22phox that blocks the Rubicon-p22phox interaction (QIEWAMWA; also: Tat cell-penetrating peptide conjugate, attachment not given here; UniProt P13498 3-10, looked up, fragment) | significantly higher | enhanced |
